Measurements published in US9730940B2, “Purine inhibitors of human phosphatidylinositol 3-kinase delta” (priority 2012, dated 2017).

biological target: PI3K-alpha (Homo sapiens (Human), UniProt P42336); assay: HTRF PI3K biochemical assay, alpha isoform; conditions: ratio PI3K-alpha IC50 value/PI3K-delta IC50 value
Sequence (P42336 whole entry, looked up, canonical isoform): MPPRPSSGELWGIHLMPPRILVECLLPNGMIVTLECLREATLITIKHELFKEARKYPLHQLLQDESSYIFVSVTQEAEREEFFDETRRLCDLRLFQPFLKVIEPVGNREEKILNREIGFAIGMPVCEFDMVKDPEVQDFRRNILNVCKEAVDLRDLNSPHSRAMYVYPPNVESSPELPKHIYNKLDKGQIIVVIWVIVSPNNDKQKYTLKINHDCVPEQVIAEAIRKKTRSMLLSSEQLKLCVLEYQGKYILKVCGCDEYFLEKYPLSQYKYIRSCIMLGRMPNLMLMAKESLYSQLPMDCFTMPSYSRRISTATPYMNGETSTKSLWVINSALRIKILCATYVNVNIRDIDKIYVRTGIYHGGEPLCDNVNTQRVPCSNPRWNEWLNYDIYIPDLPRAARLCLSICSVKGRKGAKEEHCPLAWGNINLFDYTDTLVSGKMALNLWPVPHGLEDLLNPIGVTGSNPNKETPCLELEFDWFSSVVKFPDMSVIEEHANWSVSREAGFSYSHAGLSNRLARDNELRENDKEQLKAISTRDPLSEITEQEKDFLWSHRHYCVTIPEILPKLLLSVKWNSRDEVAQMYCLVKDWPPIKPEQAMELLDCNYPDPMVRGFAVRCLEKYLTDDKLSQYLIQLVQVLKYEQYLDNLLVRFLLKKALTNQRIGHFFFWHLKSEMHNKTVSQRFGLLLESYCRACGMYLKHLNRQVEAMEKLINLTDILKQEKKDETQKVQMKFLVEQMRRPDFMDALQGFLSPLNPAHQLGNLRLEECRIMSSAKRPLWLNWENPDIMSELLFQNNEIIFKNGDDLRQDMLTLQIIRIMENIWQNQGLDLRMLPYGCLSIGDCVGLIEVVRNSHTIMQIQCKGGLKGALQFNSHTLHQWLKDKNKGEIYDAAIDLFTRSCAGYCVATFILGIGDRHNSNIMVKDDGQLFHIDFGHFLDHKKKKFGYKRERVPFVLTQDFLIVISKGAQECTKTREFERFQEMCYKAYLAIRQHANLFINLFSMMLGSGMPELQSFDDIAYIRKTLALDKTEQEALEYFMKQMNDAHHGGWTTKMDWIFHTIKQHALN
Sequence (P27986 whole entry partner, looked up, canonical isoform): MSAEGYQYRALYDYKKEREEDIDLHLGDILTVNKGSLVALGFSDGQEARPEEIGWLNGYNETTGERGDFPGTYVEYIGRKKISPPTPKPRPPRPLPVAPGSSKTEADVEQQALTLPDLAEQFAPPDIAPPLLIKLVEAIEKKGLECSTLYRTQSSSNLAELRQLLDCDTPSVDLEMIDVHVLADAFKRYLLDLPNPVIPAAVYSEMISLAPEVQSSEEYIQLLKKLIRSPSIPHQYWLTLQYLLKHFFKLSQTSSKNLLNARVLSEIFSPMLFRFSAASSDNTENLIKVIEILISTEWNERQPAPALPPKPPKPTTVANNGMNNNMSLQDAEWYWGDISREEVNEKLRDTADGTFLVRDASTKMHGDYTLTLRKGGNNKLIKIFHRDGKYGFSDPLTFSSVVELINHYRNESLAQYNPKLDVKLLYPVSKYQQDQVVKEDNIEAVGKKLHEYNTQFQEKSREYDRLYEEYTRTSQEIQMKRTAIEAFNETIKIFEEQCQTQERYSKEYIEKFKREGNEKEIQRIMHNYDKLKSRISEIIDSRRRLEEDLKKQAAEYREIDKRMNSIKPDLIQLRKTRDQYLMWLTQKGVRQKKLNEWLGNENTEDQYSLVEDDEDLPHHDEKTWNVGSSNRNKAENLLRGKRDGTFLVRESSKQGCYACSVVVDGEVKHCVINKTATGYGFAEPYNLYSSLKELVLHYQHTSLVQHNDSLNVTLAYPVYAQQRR

| SMILES | Relative Selectivity versus PI3Kalpha |
| --- | --- |
| CCn1c(-c2ccc(C(F)(F)F)nc2)nc2c(O[C@H]3CCN(C(=O)N4CC(OC)C4)C3)ncnc21 [Compound 5-28, (S)-(3-((9-ethyl-8-(6-(trifluoromethyl)pyridin-3-yl)-9H-purin-6-yl)oxy)pyrrolidin-1-yl)(3-methoxyazetidin-1-yl)methanone] | >10 |
| CCC(=O)N1CC[C@H](Oc2ncnc3c2nc(-c2cnc(OC)c(NS(C)(=O)=O)c2)n3C)C1 [Compound 3-38, N-[2-methoxy-5-(9-methyl-6-{[(3S)-1-propanoylpyrrolidin-3-yl]oxy}-9H-purin-8-yl)pyridin-3-yl]methanesulfonamide] | >10 |
| CCn1ncc(-c2nc3c(O[C@H]4CCN(C(=O)c5ocnc5C)C4)ncnc3n2C)c1C [Compound 2-71, 8-(1-ethyl-5-methyl-1H-pyrazol-4-yl)-9-methyl-6-({(3S)-1-[(4-methyl-1,3-oxazol-5-yl)carbonyl]pyrrolidin-3-yl}oxy)-9H-purine] | >10 |
| CCn1ncc(-c2nc3c(O[C@H]4CCN(C(=O)C5CCCO5)C4)ncnc3n2C)c1C (stereo partly drawn) [Compound 2-17, 8-(1-ethyl-5-methyl-1H-pyrazol-4-yl)-9-methyl-6-{[(3S)-1-(tetrahydrofuran-2-ylcarbonyl)pyrrolidin-3-yl]oxy}-9H-purine] | >10 |
| CCn1ncc(-c2nc3c(S[C@H]4CCN(C(=O)c5ccn(C)n5)C4)ncnc3n2C)c1C [Compound 10-10, (S)-(3-((8-(1-ethyl-5-methyl-1H-pyrazol-4-yl)-9-methyl-9H-purin-6-yl)thio)pyrrolidin-1-yl)(1-methyl-1H-pyrazol-3-yl)methanone] | >10 |
| CCn1ncc(-c2nc3c(O[C@H]4CCN(C(=O)c5nnc6n5CCCC6)C4)ncnc3n2C)c1C [Compound 2-42, 8-(1-ethyl-5-methyl-1H-pyrazol-4-yl)-9-methyl-6-{[(3S)-1-(5,6,7,8-tetrahydro[1,2,4]triazolo[4,3-a]pyridin-3-ylcarbonyl)pyrrolidin-3-yl]oxy}-9H-purine] | 3 |
| CCC(=O)N1CC[C@H](Oc2ncnc3c2nc(-c2cnn4c2CCCC4)n3C)C1 [Compound 3-40, 9-methyl-6-{[(3S)-1-propanoylpyrrolidin-3-yl]oxy}-8-(4,5,6,7-tetrahydropyrazolo[1,5-a]pyridin-3-yl)-9H-purine] | >10 |
| CCn1c(-c2cnc(C)nc2)nc2c(O[C@H]3CCN(C(=O)C4CCC4C)C3)ncnc21 (single isomer, unassigned) [Compound 2-120, 9-ethyl-6-({(3S)-1-[([(1R,2S) or (1R,2R) or (1S,2R) or (1S,2S)]-methylcyclobutyl)carbonyl]pyrrolidin-3-yl}oxy)-8-(2-methylpyrimidin-5-yl)-9H-purine] | >10 |
| CCC(=O)N1CC[C@H](Oc2ncnc3c2nc(-c2cnn(C(C)(C)C)c2)n3C)C1 [Compound 3-16, 8-(1-tert-butyl-1H-pyrazol-4-yl)-9-methyl-6-{[(3S)-1-propanoylpyrrolidin-3-yl]oxy}-9H-purine] | >10 |
| CCn1c(-c2cnc(C)nc2)nc2c(OC3CCC(NC(=O)C4CCOCC4)C3)ncnc21 (single isomer, unassigned) [Compound 9-9, N-[(1S,3S) or (1R,3R)]-(3-{[9-ethyl-8-(2-methylpyrimidin-5-yl)-9H-purin-6-yl]oxy}cyclopentyl)tetrahydro-2H-pyran-4-carboxamide] | >10 |
| CCCn1c(-c2cnn(CC)c2C)nc2c(O[C@H]3CCN(C(=O)CC)C3)ncnc21 [Compound 3-18, 8-(1-ethyl-5-methyl-1H-pyrazol-4-yl)-6-{[(3S)-1-propanoylpyrrolidin-3-yl]oxy}-9-propyl-9H-purine] | >10 |
| CCn1c(-c2cnc(C)nc2)nc2c(O[C@H]3CCN(C(=O)OC(C)(C)C)[C@@H]3C)ncnc21 [Compound 1-48, tert-butyl (2R,3S)-3-{[9-ethyl-8-(2-methylpyrimidin-5-yl)-9H-purin-6-yl]oxy}-2-methylpyrrolidine-1-carboxylate] | >10 |
| CCC(=O)N1CC[C@H](Oc2ncnc3c2nc(-c2cnc4[nH]ccc4c2)n3C)C1 [Compound 3-3, (S)-1-(3-((9-methyl-8-(1H-pyrrolo[2,3-b]pyridin-5-yl)-9H-purin-6-yl)oxy)pyrrolidin-1-yl)propan-1-one] | >10 |
| CCn1c(-c2cnc(C)nc2)nc2c(O[C@H]3CCN(c4cccnc4)C3)ncnc21 [Compound 7-24, 9-ethyl-8-(2-methylpyrimidin-5-yl)-6-{[(3S)-1-pyridin-3-ylprrolidin-3-yl]oxy}-9H-purine] | >10 |
| CCn1ncc(-c2nc3c(O[C@H]4CCN(C(=O)c5conc5C)C4)ncnc3n2C)c1C [Compound 2-51, 8-(1-ethyl-5-methyl-1H-pyrazol-4-yl)-9-methyl-6-({(3S)-1-[(3-methylisoxazol-4-yl)carbonyl]pyrrolidin-3-yl}oxy)-9H-purine] | >10 |
| CCn1c(-c2cnc(C)nc2)nc2c(OC3CN(C(=O)C4CC4)CC34CC4)ncnc21 (stereo not shown) [Compound 3-64, (R— or S—)-6-{[5-(cyclopropylcarbonyl)-5-azaspiro[2.4]hept-7-yl]oxy}-9-ethyl-8-(2-methylpyrimidin-5-yl)-9H-purine] | >10 |

| SMILES | Relative Selectivity versus PI3Kalpha |
| --- | --- |
| CCn1c(-c2cnc(OC)c(F)c2)nc2c(O[C@H]3CCN(C(=O)c4cncn4C)C3)ncnc21 [Compound 3-58, 9-ethyl-8-(5-fluoro-6-methoxypyridin-3-yl)-6-({(3S)-1-[(1-methyl-1H-imidazol-5-yl)carbonyl]pyrrolidin-3-yl}oxy)-9H-purine] | >10 |
| CCn1c(-c2cnc(C)nc2)nc2c(O[C@H]3CCN(C(=O)C4CCC4C)C3)ncnc21 (single isomer, unassigned) [Compound 2-118, 9-ethyl-6-({(3S)-1-[([(1R,2S) or (1R,2R) or (1S,2R) or (1S,2S)]-methylcyclobutyl)carbonyl]pyrrolidin-3-yl}oxy)-8-(2-methylpyrimidin-5-yl)-9H-purine] | >10 |
| CN(C)c1ccc(-c2nc3c(O[C@H]4CCN(C(=O)OC(C)(C)C)C4)ncnc3n2C)cn1 [Compound 1-20, tert-butyl (3S)-3-{[8-(6-(dimethylamino)pyridin-3-yl]-9-methyl-9H-purin-6-yl}oxy)pyrrolidine-1-carboxylate] | >10 |
| CCC(=O)N1CC[C@H](Oc2ncnc3c2nc(Oc2ccc(OC)c(F)c2)n3C)C1 [Compound 12-4, 8-(3-fluoro-4-methoxyphenoxy)-9-methyl-6-{[(3S)-1-propanoylpyrrolidin-3-yl]oxy}-9H-purine] | >10 |
| Cn1c(-c2ccc(-n3ccnc3)cc2)nc2c(O[C@H]3CCN(C(=O)OC(C)(C)C)C3)ncnc21 [Compound 1-25, tert-butyl (3S)-3-({8-[4-(1H-imidazol-1-yl)phenyl]-9-methyl-9H-purin-6-yl}oxy)pyrrolidine-1-carboxylate] | >10 |
| CCn1c(-c2cnc(C)nc2)nc2c(O[C@H]3CCN(C(=O)OC(C)(C)C)C3)ncnc21 [Compound 1-3, (S)-tert-butyl 3-(9-ethyl-8-(2-methylpyrimidin-5-yl)-9H-purin-6-yloxy)pyrrolidine-1-carboxylate] | >10 |
| CCn1ncc(-c2nc3c(OC4CCN(C(=O)c5ccc6ccccc6c5)C4)ncnc3n2C)c1C (stereo not shown) [Compound 2-3, 8-(1-ethyl-5-methyl-1H-pyrazol-4-yl)-9-methyl-6-{[1-(naphthalen-2-ylcarbonyl)pyrrolidin-3-yl]oxy}-9H-purine] | >10 |
| CCn1ncc(-c2nc3c(O[C@@H]4CCN(C(=O)C5CCOCC5)C4)ncnc3n2C)c1C [Compound 2-9, (R)-(3-((8-(1-ethyl-5-methyl-1H-pyrazol-4-yl)-9-methyl-9H-purin-6-yl)oxy)pyrrolidin-1-yl)(tetrahydro-2H-pyran-4-yl)methanone] | 3 |
| CCC1CN(C(=O)C2CC2)C[C@H]1Oc1ncnc2c1nc(-c1cnc(C)nc1)n2CC (single isomer, unassigned) [Compound 3-47, [3R,4S or 3S,4R]-6-{[1-(cyclopropylcarbonyl)-4-ethylpyrrolidin-3-yl]oxy}-9-ethyl-8-(2-methylpyrimidin-5-yl)-9H-purine] | >10 |
| CCn1c(-c2cnc(C)nc2)nc2c(O[C@H]3CCN(C(=O)C4CC4(C)C)C3)ncnc21 (single isomer, unassigned) [Compound 2-127, 6-({(3S)-1-[S- or R-(2,2-dimethylcyclopropyl)carbonyl]pyrrolidin-3-yl}oxy)-9-ethyl-8-(2-methylpyrimidin-5-yl)-9H-purine] | >10 |
| CCn1c(-c2cnn3c2CCCC3)nc2c(O[C@H]3CCN(C(=O)C4CC4)C3)ncnc21 [Compound 3-59, 6-{[(3S)-1-(cyclopropylcarbonyl)pyrrolidin-3-yl]oxy}-9-ethyl-8-(4,5,6,7-tetrahydropyrazolo[1,5-a]pyridin-3-yl)-9H-purine] | >10 |
| CCC(=O)N1CC[C@H](Oc2ncnc3c2nc(-c2ccc(OC)c(C)c2)n3C)C1 [Compound 3-36, 8-(4-methoxy-3-methylphenyl)-9-methyl-6-{[(3S)-1-propanoylpyrrolidin-3-yl]oxy}-9H-purine] | >10 |
| CCC(=O)N1CC[C@H](Oc2ncnc3c2nc(-c2ccc(C(F)(F)F)nc2)n3C)C1 [Compound 3-2, (S)-1-(3-((9-methyl-8-(6-(trifluoromethyl)pyridin-3-yl)-9H-purin-6-yl)oxy)pyrrolidin-1-yl)propan-1-one] | >10 |
| CCn1c(-c2cnc(OC)c(Cl)c2)nc2c(O[C@H]3CCN(C(=O)C4CC4)C3)ncnc21 [Compound 3-28, 8-(5-chloro-6-methoxypyridin-3-yl)-6-{[(3S)-1-(cyclopropylcarbonyl)pyrrolidin-3-yl]oxy}-9-ethyl-9H-purine] | >10 |
| CCn1c(-c2cnc(C(F)(F)F)nc2)nc2c(O[C@H]3CCN(C(=O)C4CC4)C3)ncnc21 [Compound 3-43, 6-{[(3S)-1-(cyclopropylcarbonyl)pyrrolidin-3-yl]oxy}-9-ethyl-8-[2-(trifluoromethyl)pyrimidin-5-yl]-9H-purine] | >10 |
